Key:
[1] = molecular target: MRCKβ (Homo sapiens (Human), UniProt Q9Y5S2); test: MRCKβ kinase assay (IMAP fluorescence polarization); format: biochemical; settings: 1 μM ATP; read-out: MRCK-B Average Ki
Source text: MRCKα, MRCKβ, ROCK1 and ROCK2 Kinase Assays

[2] = molecular target: ROCK2 (Homo sapiens (Human), UniProt O75116); test: ROCK2 kinase assay (IMAP fluorescence polarization); format: biochemical; settings: 1 μM ATP; read-out: ROCK2 Average Ki
[3] = molecular target: ROCK1 (Homo sapiens (Human), UniProt Q13464); settings: read-out: ROCK1 Average Ki; 1 μM ATP
Chain of ROCK1 (Q13464 2-1354 limits assumed): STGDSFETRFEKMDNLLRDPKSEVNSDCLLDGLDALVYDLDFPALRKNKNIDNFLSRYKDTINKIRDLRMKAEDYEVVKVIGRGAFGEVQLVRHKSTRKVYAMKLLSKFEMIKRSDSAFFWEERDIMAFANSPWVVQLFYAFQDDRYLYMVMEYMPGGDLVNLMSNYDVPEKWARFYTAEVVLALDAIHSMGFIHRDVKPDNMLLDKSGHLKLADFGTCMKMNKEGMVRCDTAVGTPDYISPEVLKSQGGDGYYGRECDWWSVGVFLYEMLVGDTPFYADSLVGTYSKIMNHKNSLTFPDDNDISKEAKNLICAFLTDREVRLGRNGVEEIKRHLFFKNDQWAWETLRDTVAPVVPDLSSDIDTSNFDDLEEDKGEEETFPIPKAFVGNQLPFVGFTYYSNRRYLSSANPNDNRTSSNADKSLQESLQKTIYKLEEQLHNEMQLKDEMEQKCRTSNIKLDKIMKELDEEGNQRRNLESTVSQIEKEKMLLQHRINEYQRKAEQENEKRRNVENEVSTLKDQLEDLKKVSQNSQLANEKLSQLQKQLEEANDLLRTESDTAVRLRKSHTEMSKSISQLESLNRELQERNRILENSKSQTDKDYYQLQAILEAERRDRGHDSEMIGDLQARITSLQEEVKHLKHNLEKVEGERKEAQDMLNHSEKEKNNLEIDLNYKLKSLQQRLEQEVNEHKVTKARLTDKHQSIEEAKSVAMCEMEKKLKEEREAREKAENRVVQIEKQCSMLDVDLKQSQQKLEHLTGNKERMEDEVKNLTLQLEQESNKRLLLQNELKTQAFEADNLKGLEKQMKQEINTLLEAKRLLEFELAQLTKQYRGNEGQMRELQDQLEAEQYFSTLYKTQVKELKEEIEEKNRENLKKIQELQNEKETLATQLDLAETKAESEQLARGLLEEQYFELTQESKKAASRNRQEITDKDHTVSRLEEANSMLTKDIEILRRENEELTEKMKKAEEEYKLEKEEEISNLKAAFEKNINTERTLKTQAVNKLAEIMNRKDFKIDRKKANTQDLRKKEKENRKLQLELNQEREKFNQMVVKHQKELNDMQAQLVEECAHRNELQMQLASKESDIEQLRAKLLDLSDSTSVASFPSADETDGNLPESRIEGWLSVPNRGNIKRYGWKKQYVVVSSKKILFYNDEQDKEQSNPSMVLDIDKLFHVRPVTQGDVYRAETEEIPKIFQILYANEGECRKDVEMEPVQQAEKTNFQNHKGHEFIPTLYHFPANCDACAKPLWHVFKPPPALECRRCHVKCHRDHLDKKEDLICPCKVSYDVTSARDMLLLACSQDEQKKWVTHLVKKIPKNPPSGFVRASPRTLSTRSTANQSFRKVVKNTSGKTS

Chain of ROCK2 (O75116 whole entry): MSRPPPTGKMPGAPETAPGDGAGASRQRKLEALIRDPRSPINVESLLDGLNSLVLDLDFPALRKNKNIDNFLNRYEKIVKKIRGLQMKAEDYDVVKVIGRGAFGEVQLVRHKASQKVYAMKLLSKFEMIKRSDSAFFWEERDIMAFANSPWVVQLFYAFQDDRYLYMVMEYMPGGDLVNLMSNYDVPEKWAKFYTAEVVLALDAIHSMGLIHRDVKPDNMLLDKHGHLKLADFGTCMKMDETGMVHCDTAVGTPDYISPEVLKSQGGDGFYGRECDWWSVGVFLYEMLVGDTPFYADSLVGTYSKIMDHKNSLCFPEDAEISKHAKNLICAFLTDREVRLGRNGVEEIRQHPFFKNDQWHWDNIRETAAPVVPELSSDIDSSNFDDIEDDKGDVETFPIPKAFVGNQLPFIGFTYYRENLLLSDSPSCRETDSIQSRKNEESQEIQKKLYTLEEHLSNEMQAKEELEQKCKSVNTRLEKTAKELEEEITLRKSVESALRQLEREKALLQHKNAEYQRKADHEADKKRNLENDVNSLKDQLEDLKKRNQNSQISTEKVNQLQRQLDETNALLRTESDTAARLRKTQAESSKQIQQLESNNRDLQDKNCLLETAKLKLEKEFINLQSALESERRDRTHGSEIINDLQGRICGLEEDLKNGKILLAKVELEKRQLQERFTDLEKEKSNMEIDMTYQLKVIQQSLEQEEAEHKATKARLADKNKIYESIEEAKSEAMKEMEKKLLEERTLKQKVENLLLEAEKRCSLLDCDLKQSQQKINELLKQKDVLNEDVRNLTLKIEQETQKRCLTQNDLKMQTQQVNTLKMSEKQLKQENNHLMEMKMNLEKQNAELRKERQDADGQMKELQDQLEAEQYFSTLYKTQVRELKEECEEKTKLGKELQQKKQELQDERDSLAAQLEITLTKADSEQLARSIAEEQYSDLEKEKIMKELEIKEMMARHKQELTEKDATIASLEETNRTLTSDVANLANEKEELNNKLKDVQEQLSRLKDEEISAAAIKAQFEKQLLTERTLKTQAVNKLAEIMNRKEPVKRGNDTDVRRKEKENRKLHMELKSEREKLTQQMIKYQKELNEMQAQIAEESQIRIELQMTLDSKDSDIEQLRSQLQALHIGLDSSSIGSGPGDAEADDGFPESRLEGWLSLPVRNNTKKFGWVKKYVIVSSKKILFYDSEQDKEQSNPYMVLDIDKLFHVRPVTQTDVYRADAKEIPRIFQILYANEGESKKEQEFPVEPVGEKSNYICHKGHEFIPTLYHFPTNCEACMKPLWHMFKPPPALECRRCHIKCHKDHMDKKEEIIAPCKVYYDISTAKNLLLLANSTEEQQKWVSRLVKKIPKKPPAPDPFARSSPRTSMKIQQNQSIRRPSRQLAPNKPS

| Ki [1] [nM] | Ki [2] [nM] | Ki [3] [nM] | Compound |
| --- | --- | --- | --- |
| 696 | 10000 | 10000 | c1ccc2c(-c3c[nH]c4nccc(N5CCCCC5)c34)n[nH]c2c1 [Example E17, 3-(1H-indazol-3-yl)-4-(1-piperidyl)-1H-pyrrolo[2,3-b]pyridine] |
| 818 | 2480 | 10000 | Cn1nccc1-c1c[nH]c2nccc(N3CCCCC3)c12 [Example E18, 3-(2-methylpyrazol-3-yl)-4-(1-piperidyl)-1H-pyrrolo[2,3-b]pyridine] |
| 213 | 115 | 144 | c1cc(N2CCCCC2)c2c(-c3ccc4[nH]ncc4c3)c[nH]c2n1 [Example E19, 3-(1H-indazol-5-yl)-4-(1-piperidyl)-1H-pyrrolo[2,3-b]pyridine] |
| 656 | 3220 | 10000 | Cn1ccc(-c2c[nH]c3nccc(N4CCCCC4)c23)n1 [Example E22, 3-(1-methylpyrazol-3-yl)-4-(1-piperidyl)-1H-pyrrolo[2,3-b]pyridine] |
| 134 | 699 | 1690 | c1ccc(-c2c[nH]c3nccc(N4CCCCC4)c23)nc1 [Example E23, 4-(1-piperidyl)-3-(2-pyridyl)-1H-pyrrolo[2,3-b]pyridine] |
| 37.6 | 20.8 | 43.5 | Cn1cc(-c2c[nH]c3nccc(N4CCCCC4)c23)cn1 [Example E24, 3-(1-methylpyrazol-4-yl)-4-(1-piperidyl)-1H-pyrrolo[2,3-b]pyridine] |
| 178 | 1500 | 10000 | c1ccc(-c2c[nH]c3nccc(N4CCC4)c23)nc1 [Example E25, 4-(azetidin-1-yl)-3-(2-pyridyl)-1H-pyrrolo[2,3-b]pyridine] |
| 57.6 | 263 | 545 | c1cncc(-c2c[nH]c3nccc(N4CCC4)c23)c1 [Example E26, 4-(azetidin-1-yl)-3-(3-pyridyl)-1H-pyrrolo[2,3-b]pyridine] |
| 130 | 381 | 713 | c1cc(N2CCC2)c2c(-c3cn[nH]c3)c[nH]c2n1 [Example E27, 4-(azetidin-1-yl)-3-(1H-pyrazol-4-yl)-1H-pyrrolo[2,3-b]pyridine] |
| 29.4 | 9.8 | 14.4 | c1cc(N2CCC2)c2c(-c3cc[nH]n3)c[nH]c2n1 [Example E28, 4-(azetidin-1-yl)-3-(1H-pyrazol-3-yl)-1H-pyrrolo[2,3-b]pyridine] |
| 1.73 | 756 | 3530 | CN[C@H]1CCCN(c2ccnc3[nH]cc(-c4ncccc4F)c23)C1 [Example E48, (3S)-1-[3-(3-fluoro-2-pyridyl)-1H-pyrrolo[2,3-b]pyridin-4-yl]-N-methyl-piperidin-3-amine] |
| 0.506 | 272 | 50800 | CN[C@H]1CCCN(c2ccnc3[nH]cc(-c4ccccn4)c23)C1 [Example E49, (3S)-N-methyl-1-[3-(2-pyridyl)-1H-pyrrolo[2,3-b]pyridin-4-yl]piperidin-3-amine] |
| 7.41 | 2190 | 8930 | CN[C@H]1CCCN(c2ccnc3[nH]cc(-c4ccc(F)cn4)c23)C1 [Example E51, (3S)-1-[3-(5-fluoro-2-pyridyl)-1H-pyrrolo[2,3-b]pyridin-4-yl]-N-methyl-piperidin-3-amine] |
| 1.27 | 335 | 50500 | CN[C@H]1CCCN(c2ccnc3[nH]cc(-c4cccnc4)c23)C1 [Example E53, (3S)-N-methyl-1-[3-(3-pyridyl)-1H-pyrrolo[2,3-b]pyridin-4-yl]piperidin-3-amine] |

Further lines, the compound ahead of its results:

| Compound | Ki [1] [nM] | Ki [2] [nM] | Ki [3] [nM] |
| --- | --- | --- | --- |
| CCn1cc(-c2c[nH]c3nccc(N4CCCCC4)c23)cn1 [Example E21, 3-(1-ethylpyrazol-4-yl)-4-(1-piperidyl)-1H-pyrrolo[2,3-b]pyridine] | 188 | 67.9 | 74.9 |
| CN1CCN(c2ccnc3[nH]cc(C#N)c23)CC1 [Example E32, 4-(4-methylpiperazin-1-yl)-1H-pyrrolo[2,3-b]pyridine-3-carbonitrile] | 147 | 164 | 237 |
| N#Cc1c[nH]c2nccc(N3CCNCC3)c12 [Example E34, 4-piperazin-1-yl-1H-pyrrolo[2,3-b]pyridine-3-carbonitrile] | 52.8 | 23.8 | 43.6 |
| CN[C@H]1CCCN(c2ccnc3[nH]cc(-c4cncc(F)c4)c23)C1 [Example E50, (3S)-1-[3-(5-fluoro-3-pyridyl)-1H-pyrrolo[2,3-b]pyridin-4-yl]-N-methyl-piperidin-3-amine] | 0.729 | 578 | 2050 |
| OCCN[C@H]1CCCN(c2ccnc3[nH]cc(-c4cncnc4)c23)C1 [Example E56, 2-[[(3S)-1-(3-pyrimidin-5-yl-1H-pyrrolo[2,3-b]pyridin-4-yl)-3-piperidyl]amino]ethanol] | 2.23 | 573 | 1390 |
| N[C@H]1CCN(c2ccnc3[nH]cc(-c4cncnc4)c23)C1 [Example E58, (3S)-1-(3-pyrimidin-5-yl-1H-pyrrolo[2,3-b]pyridin-4-yl)pyrrolidin-3-amine] | 3.48 | 85.8 | 158 |
| NC1CCCN(c2ccnc3[nH]cc(-c4cncnc4)c23)C1 (stereo not drawn) [Example E59, 1-(3-pyrimidin-5-yl-1H-pyrrolo[2,3-b]pyridin-4-yl)piperidin-3-amine] | 6.9 | 154 | 318 |
| Cc1[nH]ncc1-c1c[nH]c2nccc(N3CCC[C@H](N)C3)c12 [Example E61, (3S)-1-[3-(5-methyl-1H-pyrazol-4-yl)-1H-pyrrolo[2,3-b]pyridin-4-yl]piperidin-3-amine] | 11.5 | 68.3 | 93.2 |
| CNC1CCCN(c2ccnc3[nH]cc(-c4cncnc4)c23)C1 (stereo not drawn) [Example E62, N-methyl-1-(3-pyrimidin-5-yl-1H-pyrrolo[2,3-b]pyridin-4-yl)piperidin-3-amine] | 4.1 | 314 | 360 |
| CNC1CCN(c2ccnc3[nH]cc(-c4cncnc4)c23)CC1 [Example E63, N-methyl-1-(3-pyrimidin-5-yl-1H-pyrrolo[2,3-b]pyridin-4-yl)piperidin-4-amine] | 1.98 | 91.2 | 138 |
| N[C@@H]1CCCN(c2ccnc3[nH]cc(-c4cncnc4)c23)C1 [Example E64, (3R)-1-(3-pyrimidin-5-yl-1H-pyrrolo[2,3-b]pyridin-4-yl)piperidin-3-amine] | 14.8 | 390 | 166 |
| NC1CCN(c2ccnc3[nH]cc(-c4cncnc4)c23)CC1 [Example E65, 1-(3-pyrimidin-5-yl-1H-pyrrolo[2,3-b]pyridin-4-yl)piperidin-4-amine] | 1.65 | 138 | 128 |
| CN[C@H]1CCCN(c2ccnc3[nH]cc(-c4cnsc4)c23)C1 [Example E67, (3S)-1-(3-isothiazol-4-yl-1H-pyrrolo[2,3-b]pyridin-4-yl)-N-methyl-piperidin-3-amine] | 0.273 | 36.4 | 109 |
| CCN[C@H]1CCCN(c2ccnc3[nH]cc(-c4ccnnc4)c23)C1 [Example E71, (3S)—N-ethyl-1-(3-pyridazin-4-yl-1H-pyrrolo[2,3-b]pyridin-4-yl)piperidin-3-amine] | 0.802 | 73.9 | 152 |
| COCCN[C@H]1CCCN(c2ccnc3[nH]cc(-c4cncnc4)c23)C1 [Example E73, (3S)-N-(2-methoxyethyl)-1-(3-pyrimidin-5-yl-1H-pyrrolo[2,3-b]pyridin-4-yl)piperidin-3-amine] | 5.71 | 964 | 2060 |
| CN[C@H]1CCCN(c2ccnc3[nH]cc(C#N)c23)C1 [Example E74, 4-[(3S)-3-(methylamino)-1-piperidyl]-1H-pyrrolo[2,3-b]pyridine-3-carbonitrile] | 6.16 | 222 | 637 |
| CN[C@H]1CCCN(c2ccnc3[nH]cc(-c4cnc(C)nc4)c23)C1 [Example E75, (3S)-N-methyl-1-[3-(2-methylpyrimidin-5-yl)-1H-pyrrolo[2,3-b]pyridin-4-yl]piperidin-3-amine] | 25.4 | 6420 | 21700 |
| CC(C)N[C@H]1CCCN(c2ccnc3[nH]cc(-c4cncnc4)c23)C1 [Example E76, (3S)-N-isopropyl-1-(3-pyrimidin-5-yl-1H-pyrrolo[2,3-b]pyridin-4-yl)piperidin-3-amine] | 871 | 16800 | 32400 |
| CN[C@@H]1CCCN(c2ccnc3[nH]cc(-c4cncnc4)c23)C1 [Example E77, (3R)-N-methyl-1-(3-pyrimidin-5-yl-1H-pyrrolo[2,3-b]pyridin-4-yl)piperidin-3-amine] | 10.5 | 248 | 379 |
| c1ncc(-c2c[nH]c3nccc(NC4CCCCNC4)c23)cn1 (stereo not drawn) [Example E85, N-(azepan-3-yl)-3-pyrimidin-5-yl-1H-pyrrolo[2,3-b]pyridin-4-amine] | 14.1 | 460 | 421 |
| c1ncc(-c2c[nH]c3nccc(N[C@@H]4CCCNC4)c23)cn1 [Example E88, N-[(3R)-3-piperidyl]-3-pyrimidin-5-yl-1H-pyrrolo[2,3-b]pyridin-4-amine] | 7.21 | 70.4 | 85.2 |
| c1ncc(-c2c[nH]c3nccc(NC4CCNCC4)c23)cn1 [Example E89, N-(4-piperidyl)-3-pyrimidin-5-yl-1H-pyrrolo[2,3-b]pyridin-4-amine] | 20.5 | 92.7 | 109 |
| CNCC1CCCN(c2ccnc3[nH]cc(-c4cncnc4)c23)C1 (stereo not drawn) [Example E90, N-methyl-1-[1-(3-pyrimidin-5-yl-1H-pyrrolo[2,3-b]pyridin-4-yl)-3-piperidyl]methanamine] | 6.01 | 217 | 148 |

Source: patent publication US11447505B1, “Pyrrolo[2,3-b]pyridine compounds and their use in the treatment of cancer” (priority 2017, dated 2022)
